According to patent US7595310B2, “Glucuronate salt of a piperazine compound” (Solvay Pharmaceuticals, B.V., priority 2005, dated 2009):

Columns and labels:
[1] = in vivo; cited from earlier work
D2 receptors = D2 receptors (Homo sapiens, UniProt P14416); details: in therapeutic models; cited from earlier work
5HT reuptake = details: in therapeutic models; cited from earlier work
[2] = rodents; cited from earlier work
[3] = Comparative equilibrium solubility of salts of compound 1; details: pH printed beside the equilibrium solubility

D2 receptors, sequence (P14416 whole entry): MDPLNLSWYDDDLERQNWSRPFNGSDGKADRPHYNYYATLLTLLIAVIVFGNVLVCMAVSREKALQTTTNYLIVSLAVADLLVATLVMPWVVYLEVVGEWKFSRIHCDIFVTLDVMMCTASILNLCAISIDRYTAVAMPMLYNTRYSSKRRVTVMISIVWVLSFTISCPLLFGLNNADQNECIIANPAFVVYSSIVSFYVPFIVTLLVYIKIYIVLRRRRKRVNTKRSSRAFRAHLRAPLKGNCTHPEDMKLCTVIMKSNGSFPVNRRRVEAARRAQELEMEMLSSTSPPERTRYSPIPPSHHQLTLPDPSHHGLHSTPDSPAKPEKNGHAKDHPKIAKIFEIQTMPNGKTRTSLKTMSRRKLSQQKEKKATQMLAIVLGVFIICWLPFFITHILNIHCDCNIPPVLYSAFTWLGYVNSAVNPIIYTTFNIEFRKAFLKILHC

Row | SMILES | activity in therapeutic models sensitive to clinically relevant antipsychotics, antidepressants, anxiolytics, Parkinson's disease [1] | activity at D2 receptors (D2 receptors) | activity against 5HT reuptake (5HT reuptake) | propensity to induce catalepsy [2] | pH ([3]; listed as freebase (1)) | pH ([3]; listed as glucuronate (2))
1 | CC1Oc2c(cccc2N2CCN(CCCc3c[nH]c4ccc(F)cc34)CC2)NC1=O (stereo not drawn) [compound 1, 8-{4-[3-(5-fluoro-1H-indol-3-yl)-propyl]-piperazin-1-yl}-2-methyl-4H-benzo[1,4]oxazin-3-one] | active | antagonistic activity | inhibitory activity | low propensity | 4.72 | 
2 | CC1Oc2c(cccc2N2CCN(CCCc3c[nH]c4ccc(F)cc34)CC2)NC1=O (stereo not drawn) [compound 2] |  |  |  |  |  | 4.25
